According to patent US20170014409A1, “TREATING INFLAMMATION USING SERELAXIN” (priority 2012, published 2017):

Tests used:
[1] = wide range of doses; up to six months of continuous treatment; cited from earlier work
sST-2 = assay: Serum sST-2 measured by EIA kit (PRESAGE sST-2 assay) in heart failure subjects treated 48 hours with serelaxin or placebo; type: in vivo, human
Procedure: Samples were collected from subjects enrolled in a multi-center, randomized, double-blind, placebo-controlled clinical trial, which was conducted to determine the safety and efficacy of serelaxin (recombinant human serelaxin) in subjects with heart failure, as described in Teerlink et al. (supra).
Serum was collected from 218 subjects (supra) for whom a baseline level of sST-2 as well as a post-serelaxin treatment level of sST-2 was determined. sST-2 was found at a lower limit of quantitation of 3.1 ng/ml and an upper limit of quantitation of 200 ng/ml. sST-2 was measured via the EIA kit (see Example 7 for more detail) and exact clinical measurements are summarized in Table 1 (see attached Table 1).
The difference between the placebo group and each of the serelaxin dose groups was statistically significant at 48 hours.
At baseline, geometric means across treatment groups ranged from 47 ng/ml to 60 ng/ml, i.e., 55 percent of the treated subjects had sST-2 concentrations that exceeded the normal range of 33.5 ng/ml in females and 49.3 ng/ml in males. […] This established that serelaxin transiently upregulates sST-2.
FIG. 3 depicts a between-treatment analysis of sST-2 by visit, comparing a change from baseline in sST-2 geometric means between the serelaxin groups compared to the placebo group at 3 time points. […] The differences subsided so that by Day 5, changes from baseline in 3 of the 4 serelaxin groups, as well as the pooled serelaxin group, were no different than change from baseline in the placebo group. By Day 14, the changes from baseline in all of the serelaxin groups were not different from change in the placebo group. As above, this establishes that serelaxin transiently up-regulates sST-2.
sST-2 levels were measured with the EIA Test Kit & PRESAGE sST-2 Assay (from Critical Diagnostics, NY) according to the manufacturer's instructions. Alternatively, other assays could be used such as the QUANTIKINE ST2/IL-1 R4 Immunoassay (from R&D Systems, Inc., MN).
The EIA test kit is a quantitative sandwich monoclonal ELISA in a 96 well plate format for measurement of sST-2 in serum or plasma. Diluted serum from 218 subjects was loaded into the appropriate wells in the anti-ST-2 antibody coated plate and incubated for the prescribed time. Following a series of steps, where reagents were washed from the plate, and additional reagents were added and subsequently washed out, the analyte sST-2 was detected by addition of a colorimetric reagent. The resulting signal was measured spectroscopically at 450 nm. The assay was conducted according to the parameters described in the assay description of the EIA test kit with all prescribed reagents and materials.

## serelaxin
[1]
  safety in nonclinical toxicology studies: safe
sST-2; 48 hours of treatment, all serelaxin dose groups, placebo decreased 30%, p<0.05 for all serelaxin groups vs. placebo
  change from baseline in sST-2 concentrations at 48 hours: increase from baseline
sST-2; 48 hours, all serelaxin groups and pooled serelaxin group, between-treatment analysis (FIG. 3)
  change from baseline in sST-2 geometric means vs. placebo group at 48 hours: significantly different
sST-2; Day 5, 3 of the 4 serelaxin groups and pooled serelaxin group
  change from baseline in sST-2 geometric means vs. placebo group at Day 5: no different
sST-2; Day 14, all serelaxin groups
  change from baseline in sST-2 geometric means vs. placebo group at Day 14: not different
